Assay results: patent US8586548B2, “NAP alpha-aminoisobutyric acid analog with neuroprotective activity” (Ramot at Tel-Aviv University, Ltd., priority 2009, dated 2013)
Where two headings read alike, the source gives them in different places.

Tests used:
[1] = target: VQIVYK (SEQ ID NO:10) peptide derived from tau (Homo sapiens, UniProt P10636); experiment: In vitro tau-like VQIVYK aggregation assay (Thioflavin S); format: biochemical
Protocol: In the presence of polyglutamic acid (or heparin), VQIVYK (SEQ ID NO:10) aggregates which can be further detected by Thioflavin S (excitation 485 nm and emission 535) with emission intensity greatly increasing.
First, different concentrations of polyglutamic acid (0, 100 μM, 250 μM, and 400 μM) VQIVYK (SEQ ID NO:10) and either […] (NH4Ac) 50 mM pH 6.5 or MOPS 20 mM pH 6.5 and Thioflavin S 5 μM were mixed together and incubated at room temperature. The extent of aggregation was read at excitation 485 nm and emission 535 nm using the infinite 200 system with the Magellan program.
The peptides were added at a range of concentrations (10^−17-10^−9 M) and the extent of aggregation of 100 μM VQIVYK (SEQ ID NO:10) was tested in the presence of polyglutamate 250 μM in MOPS 20 μM, pH 6.5 for 7 days.
In order to avoid reading self peptide aggregation as VQIVYK aggregation, for each peptide concentration, the fluorescence of the peptide solution without VQIVYK was subtracted from the fluorescence of each peptide concentration containing VQIVYK.

[2] = test system: beta amyloid peptide (1-42) toxicity; settings: cited from earlier work
[3] = intranasal administration to rats, dogs or humans; cited from earlier work
[4] = test system: newborn apolipoprotein E deficient mice; settings: newborn apolipoprotein E deficient mice subjected to hypoxia; cited from earlier work
[5] = test system: fibroblast-like cells and neuronal-like cells; settings: cited from earlier work
[6] = intranasal administration in the rat; cited from earlier work
[7] = test system: rat cerebral cortical neurons; settings: cited from earlier work
[8] = test system: primary hippocampal neurons from presenilin 1 (PSI) mutant knock-in mice; settings: pretreatment; cited from earlier work
[9] = test system: beta amyloid peptide 25-35 neurotoxicity; settings: cited from earlier work

Molecule: Asn-Ala-Pro-Val-Ser-Ile-Pro-Gln [NAP]
- inhibition of tau aggregation at 10^−13M ([1]; 100 μM VQIVYK, polyglutamate 250 μM, MOPS pH 6.5, 7 days, FIG. 4, p<0.0005 vs. control): the effect of NAP seems to diminish
- prevention of tau aggregation (overall) ([1]; peptides at 10^−17-10^−9 M): effective for preventing tau aggregation
- protection against beta amyloid peptide (1-42) toxicity [2]: protection against the toxic beta amyloid peptide (1-42)
- plasma levels [3]: measurable plasma levels
- neurodevelopment [4]: enhances neurodevelopment
- protection against oxidative stress ([5]; fibroblast-like cells): did not protect fibroblast-like cells
- protection against oxidative stress ([5]; neuronal-like cells): did protect neuronal-like cells
- appearance in plasma [6]: rapid appearance in plasma
- protection against beta amyloid (25-35) ([7]; neuronal-enriched cultures): protected against beta amyloid (25-35)
- protection against beta amyloid (25-35) toxicity ([7]; neurons seeded on a bed of astrocytes): protect against beta amyloid (amino acids 25-35) toxicity

Molecule: SALLRSIPA (synthetic activity-dependent neuroprotective protein (ADNP) activity dependent neurotrophic factor 1 (ADNF-1) active core site, ADNF-9)
- protection of neurons with increased vulnerability to excitotoxicity [8]: protected by pretreatment with ADNF-9

B1: recombinant ADNP: recombinant activity-dependent neuroprotective protein (protein, UniProt Q9H2P0 1-1102, looked up)
Activity-dependent …: MFQLPVNNLGSLRKARKTVKKILSDIGLEYCKEHIEDFKQFEPNDFYLKNTTWEDVGLWDPSLTKNQDYRTKPFCCSACPFSSKFFSAYKSHFRNVHSEDFENRILLNCPYCTFNADKKTLETHIKIFHAPNASAPSSSLSTFKDKNKNDGLKPKQADSVEQAVYYCKKCTYRDPLYEIVRKHIYREHFQHVAAPYIAKAGEKSLNGAVPLGSNAREESSIHCKRCLFMPKSYEALVQHVIEDHERIGYQVTAMIGHTNVVVPRSKPLMLIAPKPQDKKSMGLPPRIGSLASGNVRSLPSQQMVNRLSIPKPNLNSTGVNMMSSVHLQQNNYGVKSVGQGYSVGQSMRLGLGGNAPVSIPQQSQSVKQLLPSGNGRSYGLGSEQRSQAPARYSLQSANASSLSSGQLKSPSLSQSQASRVLGQSSSKPAAAATGPPPGNTSSTQKWKICTICNELFPENVYSVHFEKEHKAEKVPAVANYIMKIHNFTSKCLYCNRYLPTDTLLNHMLIHGLSCPYCRSTFNDVEKMAAHMRMVHIDEEMGPKTDSTLSFDLTLQQGSHTNIHLLVTTYNLRDAPAESVAYHAQNNPPVPPKPQPKVQEKADIPVKSSPQAAVPYKKDVGKTLCPLCFSILKGPISDALAHHLRERHQVIQTVHPVEKKLTYKCIHCLGVYTSNMTASTITLHLVHCRGVGKTQNGQDKTNAPSRLNQSPSLAPVKRTYEQMEFPLLKKRKLDDDSDSPSFFEEKPEEPVVLALDPKGHEDDSYEARKSFLTKYFNKQPYPTRREIEKLAASLWLWKSDIASHFSNKRKKCVRDCEKYKPGVLLGFNMKELNKVKHEMDFDAEWLFENHDEKDSRVNASKTADKKLNLGKEDDSSSDSFENLEEESNESGSPFDPVFEVEPKISNDNPEEHVLKVIPEDASESEEKLDQKEDGSKYETIHLTEEPTKLMHNASDSEVDQDDVVEWKDGASPSESGPGSQQVSDFEDNTCEMKPGTWSDESSQSEDARSSKPAAKKKATMQGDREQLKWKNSSYGKVEGFWSKDQSQWKNASENDERLSNPQIEWQNSTIDSEDGEQFDNMTDGVAEPMHGSLAGVKLSSQQA
- neuroprotection in vitro against severe oxidative stress and beta amyloid peptide 25-35 [9]: neuroprotective in vitro
